Values of other authors in patent US6967217B1, “Process and composition for enhancing the action of vitamin a on the cellular activity of an individual, and use of vitamin c” (Natura Cosmetico S.A., priority 1998, dated 2005).

System: wrinkles
Conditions: Retinol 0.034%; men and women with age between 22 and 34 years

CC1=C(/C=C/C(C)=C/C=C/C(C)=C/CO)C(C)(C)CCC1 [Retinol]
effect on wrinkles: reduce the amount and the deepness of wrinkles
